Test results reported in PubChem BioAssay (NCI).
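Results reflect a 48-hour exposure of cells in 96-well plates to compound at five concentrations. TGI: total growth inhibition.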

Experiments:
Test in all cases: growth of human tumour cells (NCI), 48 h
[1] = test system: BT-549 breast
[2] = test system: NCI-H226 lung
[3] = test system: SNB-19 CNS
[4] = test system: RXF 393 renal
[5] = test system: SW-620 colon
[6] = test system: UACC-62 melanoma
[7] = test system: MCF7 breast
[8] = test system: ACHN renal
[9] = test system: UACC-257 melanoma
[10] = test system: A498 renal
[11] = test system: UO-31 renal
[12] = test system: HCC-2998 colon
[13] = test system: LOX IMVI melanoma
[14] = test system: SK-MEL-2 melanoma
[15] = test system: CAKI-1 renal

| SMILES | TGI [1] | TGI [2] | TGI [3] | TGI [4] | TGI [5] | TGI [6] | TGI [7] | TGI [8] | TGI [9] | TGI [10] | TGI [11] | TGI [12] | TGI [13] | TGI [14] | TGI [15] |
| --- | --- | --- | --- | --- | --- | --- | --- | --- | --- | --- | --- | --- | --- | --- | --- |
| Cc1ccc2c(c1)C(=O)/C(=C1/CCc3ccc(C)cc31)C2 | > 100 µM | > 100 µM | > 100 µM | > 100 µM | > 100 µM | > 100 µM | > 100 µM | > 100 µM | > 100 µM | > 100 µM | > 100 µM | > 100 µM | > 100 µM | > 100 µM | – |
| CN(C(=O)OC(C)(C)C)[C@H]1CCCC[C@H]1N1CCCC1 | > 100 µM | > 100 µM | > 100 µM | – | > 100 µM | > 100 µM | > 100 µM | > 100 µM | > 100 µM | > 100 µM | > 100 µM | – | > 100 µM | > 100 µM | > 100 µM |
| O=C1CCC(=O)N1CNc1ccc2c(c1)Sc1ccccc1O2 | 93.4 µM | 63.1 µM | > 100 µM | 79.9 µM | > 100 µM | > 100 µM | > 100 µM | > 100 µM | > 100 µM | > 100 µM | 91.5 µM | – | 68.9 µM | 40.6 µM | > 100 µM |
| C1COC2SC3=C(SC(=C4SC5=C(SCCS5)S4)S3)SC2O1 (stereo not drawn) | > 100 µM | > 100 µM | > 100 µM | > 100 µM | > 100 µM | > 100 µM | > 100 µM | > 100 µM | > 100 µM | > 100 µM | > 100 µM | > 100 µM | – | > 100 µM | > 100 µM |
| COC1Cc2c(C)c(OC(C)=O)c3cccnc3c2O1 (stereo not drawn) | 41.5 µM | > 100 µM | > 100 µM | 31.7 µM | 27.9 µM | 29 µM | 39.7 µM | 22.8 µM | 29.8 µM | > 100 µM | 27.3 µM | > 100 µM | – | 31.2 µM | > 100 µM |
| C=C(Cl)C(C)(Cl)CCC(Cl)C(C)(C)Cl (stereo not drawn) | > 100 µM | > 100 µM | > 100 µM | > 100 µM | > 100 µM | – | > 100 µM | > 100 µM | > 100 µM | > 100 µM | > 100 µM | > 100 µM | 61.2 µM | > 100 µM | > 100 µM |
| CC(C)(C)CN1[C@@H]2CCCC[C@H]2N(CC(C)(C)C)P1(=O)Cc1ccccc1 | 31.2 µM | 29.7 µM | 28.6 µM | 24.1 µM | 30.7 µM | 22.5 µM | 26.2 µM | 28.5 µM | 25.6 µM | – | 26.1 µM | 21.2 µM | 29.6 µM | 29.9 µM | 27.3 µM |
| C=CCNC1=C2C[C@@H](C)C[C@@H](OC)[C@H](OC(=O)CN(C)C)[C@H](C)/C=C(\C)[C@@H](OC(N)=O)[C@H](OC)/C=C\C=C(/C)C(=O)NC(=CC1=O)C2=O | 24 µM | – | 20.8 µM | > 41.3 µM | 26.9 µM | 11.6 µM | 14.3 µM | 20.1 µM | 17.2 µM | 19.4 µM | 24.1 µM | 0.284 µM | 8.19 µM | 13.9 µM | 31.9 µM |
| COc1ccc(-c2oc3c(CC(=O)O)cccc3c(=O)c2OC)cc1 | > 100 µM | > 100 µM | – | > 100 µM | – | > 100 µM | > 100 µM | > 100 µM | > 100 µM | > 100 µM | 53.4 µM | > 100 µM | – | > 100 µM | 42.6 µM |
| NC(=S)SCCC(=O)O | > 100 µM | > 100 µM | > 100 µM | – | > 100 µM | > 100 µM | > 100 µM | > 100 µM | > 100 µM | > 100 µM | > 100 µM | > 100 µM | > 100 µM | > 100 µM | > 100 µM |
| CC(=O)C1(c2ccccc2)CCN(Cn2sc3nc(C)cc(C)c3c2=O)CC1 | > 100 µM | > 100 µM | > 100 µM | 39.3 µM | > 100 µM | > 100 µM | > 100 µM | 33.5 µM | – | > 100 µM | 31.8 µM | 72.7 µM | 57.8 µM | > 100 µM | > 100 µM |
| CCOC(=O)CSc1nc(-c2ccc(OC)cc2)c(C#N)c(=O)[nH]1 | > 100 µM | > 100 µM | > 100 µM | > 100 µM | > 100 µM | > 100 µM | > 100 µM | > 100 µM | > 100 µM | > 100 µM | > 100 µM | > 100 µM | – | > 100 µM | > 100 µM |
| CNC(=O)Nc1cc2c3c(c1)CCCN3CCC2 | > 10 µM | > 10 µM | > 10 µM | > 10 µM | > 10 µM | > 10 µM | > 10 µM | > 10 µM | > 10 µM | > 10 µM | – | > 10 µM | > 10 µM | > 10 µM | > 10 µM |
| CC(=O)O[C@H]1C(=O)[C@@]2(C)C(C(OC(=O)c3ccccc3)[C@]3(O)CC(OC(=O)C(O)C(NC(=O)c4ccccc4)c4ccc(F)cc4)C(C)=C1C3(C)C)[C@]1(OC(C)=O)CO[C@@H]1C[C@@H]2O (stereo partly drawn) | > 10 µM | – | > 10 µM | 0.0187 µM | > 10 µM | > 10 µM | > 10 µM | > 10 µM | > 10 µM | – | > 10 µM | 0.0193 µM | > 10 µM | 3.27 µM | > 10 µM |
| CC(=O)OCC1OC(n2c(C)c(N=Nc3ccc(C)cc3)c(C)c(C#N)c2=S)C(OC(C)=O)C(OC(C)=O)C1OC(C)=O (stereo not drawn) | > 100 µM | – | > 100 µM | > 100 µM | > 100 µM | > 100 µM | > 100 µM | > 100 µM | > 100 µM | – | > 100 µM | > 100 µM | > 100 µM | – | > 100 µM |
| O=c1c2cccnc2[nH]c2ccc3scnc3c12 | > 10 µM | > 10 µM | > 10 µM | 8.71 µM | > 10 µM | > 10 µM | > 10 µM | > 10 µM | > 10 µM | > 10 µM | – | > 10 µM | > 10 µM | > 10 µM | > 10 µM |
